# Results from article PMC5700161, “Structure of human immunoproteasome with a reversible and noncompetitive inhibitor that selectively inhibits activated lymphocytes” (Nature Communications, 2017).
# Tests used:
# [1] = system: resting CD3+ T cells and CD19+ B cells; assay: Viability assay of human PBMC populations (Fixable Viability dye); assay type: cell-based; settings: 10 nM bortezomib vs 1 μM PKS21221
# Protocol: (§1) The immunoproteasome plays important roles in T cell differentiation and proliferation and dendritic cell activation and maturation[14],[20],[24]. However, its role in B cell differentiation is not well understood. […] Differentiated ASCs were then exposed to PKS21221 at indicated concentrations and cell survival was determined with Annexin V and 7-aminoactinomycin D (7-AAD) at three-time points (12-h, 24-h, and 48-h after treatment). […] In addition, the cytotoxicity of PKS21221 to different cell populations in PBMC was examined and compared to the cytotoxicity of bortezomib. PBMCs were incubated with PKS21221 or bortezomib, and the viability was assessed in T cells (CD3^+), B cells (CD19^+), monocytes (CD14^+) and dendritic cells (CD3^−CD19^−CD14^−CD16^−CD11c^+HLA-DR^+), respectively (Supplementary Fig. 13b–e).
# (1 picture or pasted object on this page, not shown here)
# CD19+CD38+CD27+ ASCs = assay: Survival and apoptosis of differentiated antibody-secreting cells (ASCs) from PBMC, Annexin V/7-AAD; assay type: cell-based, human; settings: added for 12 hours on Day 5
# Protocol: as §1
# PBMCs were cultured with or without IL-2/R848 for 5 days, followed by 12-h incubation with PKS21221 at different concentrations. a Representative flow cytometry plots of cells treated with IL-2 and R848 in the presence and absence of PKS21221. […] Annexin V^+7-AAD^− cells were referred as “Early apoptosis” population, and Annexin V^+7-AAD^+ cells were referred as “Dead” population. d Percentage of early apoptotic ASCs (left) and dead ASCs (right), after 12-h incubation with PKS21221.
# Human peripheral blood samples were obtained from five different healthy volunteers (BWH Specimen Bank). Peripheral blood mononuclear cells (PBMCs) were isolated by density gradient centrifugation using Lymphoprep (StemCell Technologies). PBMCs were cultured at 1.5 × 10^6 cells per mL in RPMI 1640 media (Lonza), supplemented with 10% human serum (GemCell) (10% HS-RPMI), recombinant human IL-2 10 ng per mL (or 100 U per ml, BioLegend) and R848 1 µg per mL (Cayman Chemicals) for 5 days, at 37 °C, 5% CO2. PKS21221 in DMSO, or DMSO only for control, was added to the culture media on day 5, and cells were incubated for additional 12, 24, and 48 h.
# proliferating T cells = assay: Apoptosis and viability of proliferating vs non-proliferating T cells; assay type: cell-based, human; settings: 4 days anti-CD3/anti-CD28, then 24 h; PKS21221 1 µM, BTZ 10 nM
# Text: (§2) As we observed selective cytotoxicity of PKS21221 in activated B cells and ASCs compared to non-activated B cells, we asked whether this is the case in proliferating T cells. We activated human T cells to proliferate with anti-CD3 and anti-CD28 in the presence or absence of PKS21221 or bortezomib. […] To examine whether these inhibitors are cytotoxic preferentially to proliferating cells, we triggered T-cell proliferation with anti-CD3/anti-CD28 for 4 days (in the absence of inhibitors), treated the cells with PKS21221 for the next 24 h and determined cell survival with Annexin V and 7-AAD (Fig. 6c, d).
# (§3) Fig. 6 Effect of PKS21221 and bortezomib (BTZ) on T-cell proliferation. T cells were isolated from human PBMC and stimulated with anti-CD3 (1 µg per ml) and anti-CD28 (1 µg per ml) for 4 days. […] Apoptosis c and viability d were assessed in proliferating and non-proliferating population of T cells. […]
# (§4) T cells were isolated from human PBMCs using Human T-cell Isolation kit (StemCell Technologies, Cat#17951). […] Cells were counted and loaded with 5 μM CellTrace Violet (Thermo Fisher) in phosphate buffered saline (PBS) for 10 min at 37 °C, followed by wash in 10% fetal calf serum (FCS)-supplemented RPMI 1640 media. […] The viability and apoptosis were assessed using Annexin V Apoptosis Detection Kit (BD Biosciences). […]
# T cells = assay: In vitro T-cell proliferation, anti-CD3/anti-CD28; assay type: cell-based, human; settings: anti-CD3 and anti-CD28 stimulation
# Text: as §2, §3, §4
structure (smiles),measurement,setting,value
"CC(C)C[C@H](NC(=O)[C@H](Cc1ccccc1)NC(=O)c1cnccn1)B(O)O [Bortezomib, bortezomib, reference compound]",cytotoxicity to resting CD3+ T cells and CD19+ B cells,[1],more cytotoxic at 10 nM than PKS2122 at 1 µM
same,ASC percentage in ASC differentiating culture,CD19+CD38+CD27+ ASCs,decreased the percentage of
same,"apoptosis and cell death, proliferating vs non-proliferating T cells",proliferating T cells,induced apoptosis and cell death to a greater extent in proliferating T cells than in non-proliferating T cells
same,proliferation of T cells,T cells,inhibited proliferation of T cells in a dose-dependent manner
